Data: DBAASP
Converted amounts (≈) assume the structure as drawn.

Experiments:
Assay in all cases: ≥ marks a high value that may be exact or a test limit, other limits are often not marked, values filed in µg/mL are converted to µM
[1] = tested on: Enterococcus faecalis ATCC 29212
[2] = tested on: Escherichia coli ATCC 25922
[3] = tested on: Escherichia coli
[4] = tested on: Staphylococcus aureus
[5] = tested on: Bacillus cereus
[6] = tested on: Candida albicans ATCC 90028
[7] = tested on: Pseudomonas aeruginosa ATCC 27853
[8] = tested on: Staphylococcus aureus ATCC 29213

Structure (SMILES) | MIC [2] | MIC [3] | MIC [5] | also measured
CSCC[C@H](NC(=O)[C@H](CCCN=C(N)N)NC(=O)[C@H](Cc1c[nH]c2ccccc12)NC(=O)[C@H](CCC(N)=O)NC(=O)[C@H](Cc1c[nH]c2ccccc12)NC(=O)[C@H](CCCN=C(N)N)NC(=O)[C@H](CCCN=C(N)N)NC(=O)[C@H](C)NC(=O)[C@H](CCCCN)NC(=O)[C@@H](N)Cc1ccccc1)C(=O)O [FKARRWQWRM] | 34.2 µM (≈ 50.1 µg/mL) | – | – | MIC [1]: 68.4 µM (≈ 100 µg/mL)
CC(C)C[C@H](NC(=O)[C@H](CCCCN)NC(=O)[C@H](Cc1ccccc1)NC(=O)[C@@H](NC(=O)[C@H](CCCCN)NC(=O)CNC(=O)[C@H](CC(C)C)NC(=O)[C@@H](N)Cc1ccccc1)C(C)C)C(=O)N[C@@H](C)C(=O)N[C@@H](CO)C(=O)N[C@@H](CCCCN)C(=O)N[C@H](C(=O)N[C@@H](Cc1ccccc1)C(=O)N[C@@H](CCCCN)C(=O)N[C@@H](C)C(=O)N[C@H](C(=O)N[C@@H](Cc1ccccc1)C(=O)NCC(=O)N[C@@H](CCCCN)C(=O)N[C@H](C(=O)O)C(C)C)C(C)C)C(C)C [FLGKVFKLASKVFKAVFGKV] | – | 7.23 µM (≈ 16 µg/mL) | 3.61 µM (≈ 8 µg/mL) | MIC [4]: 1.81 µM (≈ 4 µg/mL)
CC(C)C[C@H](NC(=O)[C@H](CCCCN)NC(=O)[C@H](Cc1ccccc1)NC(=O)[C@@H](NC(=O)[C@H](CCCCN)NC(=O)CNC(=O)[C@H](CC(C)C)NC(=O)[C@@H](N)Cc1ccccc1)C(C)C)C(=O)N[C@@H](C)C(=O)N[C@@H](CO)C(=O)N[C@@H](CCCCN)C(=O)N[C@H](C(=O)N[C@@H](Cc1ccccc1)C(=O)N1CCC[C@H]1C(=O)N[C@@H](CCCCN)C(=O)N[C@H](C(=O)N[C@@H](Cc1ccccc1)C(=O)NCC(=O)N[C@@H](CCCCN)C(=O)N[C@H](C(=O)O)C(C)C)C(C)C)C(C)C [FLGKVFKLASKVFPKVFGKV] | – | 7.14 µM (≈ 16 µg/mL) | 14.3 µM (≈ 32 µg/mL) | MIC [4]: 28.6 µM (≈ 64 µg/mL)
CC(C)C[C@H](NC(=O)[C@H](CCCCN)NC(=O)[C@H](Cc1ccccc1)NC(=O)[C@@H](NC(=O)[C@@H](NC(=O)CNC(=O)[C@H](CC(C)C)NC(=O)[C@@H](N)Cc1ccccc1)C(C)C)C(C)C)C(=O)N[C@@H](C)C(=O)N[C@@H](CO)C(=O)N[C@@H](CCCCN)C(=O)N[C@H](C(=O)N[C@@H](Cc1ccccc1)C(=O)NCC(=O)N[C@@H](C)C(=O)N[C@H](C(=O)N[C@@H](Cc1ccccc1)C(=O)NCC(=O)N[C@@H](CCCCN)C(=O)N[C@H](C(=O)O)C(C)C)C(C)C)C(C)C [FLGVVFKLASKVFGAVFGKV] | – | > 121 µM | 7.57 µM (≈ 16 µg/mL) | MIC [4]: 3.79 µM (≈ 8 µg/mL)
CC[C@H](C)[C@H](NC(=O)[C@H](C)NC(=O)CNC(=O)[C@H](Cc1ccccc1)NC(=O)[C@@H](NC(=O)[C@H](CO)NC(=O)[C@@H]1CCCN1C(=O)[C@@H](NC(=O)[C@@H](NC(=O)[C@H](CCCCN)NC(=O)[C@H](CO)NC(=O)[C@H](C)NC(=O)[C@H](CC(C)C)NC(=O)[C@H](CO)NC(=O)CNC(=O)[C@@H](NC(=O)[C@@H](N)Cc1ccccc1)C(C)C)C(C)C)C(C)C)C(C)C)C(=O)N[C@@H](CCCCN)C(=O)N[C@H](C(=O)N[C@@H](CCCCN)C(=O)O)[C@@H](C)O [FVGSLASKVVPSVFGAIKTK] | – | > 126 µM | ≥ 126 µM | –
CC[C@H](C)[C@H](NC(=O)[C@H](Cc1ccccc1)NC(=O)CN)C(=O)NCC(=O)N[C@@H](CCCCN)C(=O)N[C@@H](CC(C)C)C(=O)N[C@@H](C)C(=O)N[C@@H](CO)C(=O)N[C@@H](CCCCN)C(=O)N[C@H](C(=O)N[C@H](C(=O)N1CCC[C@H]1C(=O)N[C@@H](CO)C(=O)N[C@H](C(=O)N[C@@H](Cc1ccc(O)cc1)C(=O)N[C@@H](CS)C(=O)N[C@@H](CCCCN)C(=O)N[C@H](C(=O)N[C@H](C(=O)NCC(=O)O)[C@@H](C)O)C(C)C)C(C)C)C(C)C)C(C)C [GFIGKLASKVVPSVYCKVTG] | – | 62.3 µM (≈ 128 µg/mL) | ≥ 125 µM | –
CC[C@H](C)[C@H](NC(=O)CN)C(=O)N[C@@H](CCSC)C(=O)N[C@@H](CC(=O)O)C(=O)N[C@H](C(=O)N[C@H](C(=O)N[C@@H](CCCCN)C(=O)N[C@@H](CC(N)=O)C(=O)N[C@@H](C)C(=O)N[C@@H](C)C(=O)N[C@@H](CCCCN)C(=O)N[C@@H](CC(=O)O)C(=O)N[C@@H](CC(C)C)C(=O)N[C@@H](C)C(=O)NCC(=O)N[C@@H](CCC(N)=O)C(=O)N[C@@H](CC(C)C)C(=O)N[C@@H](CC(=O)O)C(=O)N[C@@H](CCCCN)C(=O)N[C@@H](CC(C)C)C(=O)N[C@@H](CCCCN)C(=O)N[C@H]1CSSC[C@@H](C(=O)O)NC(=O)CNC(=O)[C@H]([C@@H](C)O)NC(=O)[C@H]([C@@H](C)CC)NC(=O)[C@H](CCCN=C(N)N)NC1=O)C(C)C)[C@@H](C)O [GIMDTVKNAAKDLAGQLDKLKCRITGC] | 23 µM (≈ 65.8 µg/mL) | – | – | MIC [6]: ≥ 130 µM
CC[C@H](C)[C@H](NC(=O)[C@H](CCCN=C(N)N)NC(=O)[C@H](CCC(N)=O)NC(=O)[C@@H](NC(=O)[C@@H](NC(=O)[C@H](CCCN=C(N)N)NC(=O)[C@@H](N)CCCCN)[C@@H](C)CC)C(C)C)C(=O)N[C@@H](CCCCN)C(=O)N[C@@H](C)C(=O)N[C@@H](Cc1ccccc1)C(=O)N[C@@H](CC(C)C)C(=O)N[C@@H](CCCN=C(N)N)C(=O)O [KRIVQRIKAFLR] | 1.25 µM (≈ 1.91 µg/mL) | – | – | MIC [7]: 1.25 µM (≈ 1.91 µg/mL); MIC [6]: 5 µM (≈ 7.64 µg/mL); MIC [8]: 2.5 µM (≈ 3.82 µg/mL)
CC[C@H](C)[C@H](NC(=O)[C@H](CCCN=C(N)N)NC(=O)[C@@H](N)CCCCN)C(=O)N[C@H](C(=O)N[C@@H](CCC(N)=O)C(=O)N[C@@H](CCCN=C(N)N)C(=O)N[C@@H](CCCCN)C(=O)N[C@@H](CCCCN)C(=O)N[C@@H](CC(=O)O)C(=O)N[C@@H](Cc1ccccc1)C(=O)N[C@@H](CC(C)C)C(=O)N[C@@H](CCCN=C(N)N)C(=O)O)C(C)C [KRIVQRKKDFLR] | 20 µM (≈ 31.7 µg/mL) | – | – | MIC [7]: 40 µM (≈ 63.5 µg/mL); MIC [6]: ≥ 40 µM; MIC [8]: 40 µM (≈ 63.5 µg/mL)
CC[C@H](C)[C@H](NC(=O)[C@H](CCCN=C(N)N)NC(=O)[C@H](CCC(N)=O)NC(=O)[C@@H](NC(=O)[C@H](CCCCN)NC(=O)[C@H](CCCN=C(N)N)NC(=O)[C@@H](N)CCCCN)C(C)C)C(=O)N[C@@H](CCCCN)C(=O)N[C@@H](CC(=O)O)C(=O)N[C@@H](Cc1ccccc1)C(=O)N[C@@H](CC(C)C)C(=O)N[C@@H](CCCN=C(N)N)C(=O)O [KRKVQRIKDFLR] | 1.25 µM (≈ 1.98 µg/mL) | – | – | MIC [7]: 2.5 µM (≈ 3.97 µg/mL); MIC [6]: 20 µM (≈ 31.7 µg/mL); MIC [8]: 10 µM (≈ 15.9 µg/mL)
CC[C@H](C)[C@H](NC(=O)[C@@H](NC(=O)[C@H](C)NC(=O)[C@H](C)NC(=O)[C@@H](NC(=O)[C@H](CCCN=C(N)N)NC(=O)[C@H](CO)NC(=O)[C@H](CO)NC(=O)[C@@H](NC(=O)[C@@H](NC(=O)[C@H](CC(C)C)NC(=O)[C@@H](NC(=O)[C@H](Cc1ccccc1)NC(=O)[C@@H]1CCCN1C(=O)[C@H](CO)NC(=O)[C@@H](N)CCCCN)C(C)C)C(C)C)C(C)C)C(C)C)C(C)C)C(=O)N[C@@H](CCCCN)C(=O)N[C@@H](CO)C(=O)N[C@@H](CC(C)C)C(=O)N1CCC[C@H]1C(=O)O [KSPFVLVVSSRVAAVIKSLP] | – | > 122 µM | ≥ 122 µM | –
CC[C@H](C)[C@H](NC(=O)[C@H](CO)NC(=O)[C@H](C)NC(=O)[C@H](CCCCN)NC(=O)[C@H](CC(C)C)NC(=O)[C@@H](NC(=O)[C@@H](NC(=O)[C@@H]1CCCN1C(=O)[C@@H](NC(=O)[C@@H](NC(=O)[C@@H](N)CCCCN)[C@@H](C)O)C(C)C)C(C)C)C(C)C)C(=O)N[C@@H](CCCCN)C(=O)N[C@H](C(=O)N[C@@H](CO)C(=O)N[C@@H](CO)C(=O)N[C@@H](C)C(=O)NCC(=O)N[C@@H](Cc1ccccc1)C(=O)NCC(=O)N[C@@H](Cc1ccccc1)C(=O)O)C(C)C [KTVPVVLKASIKVSSAGFGF] | – | > 126 µM | ≥ 126 µM | –
CC(C)[C@H](NC(=O)[C@H](CO)NC(=O)[C@@H](NC(=O)[C@H](CCCCN)NC(=O)[C@H](C)NC(=O)[C@@H](NC(=O)[C@@H](NC(=O)[C@H](CCCCN)NC(=O)[C@@H](NC(=O)[C@H](Cc1ccccc1)NC(=O)[C@H](CO)NC(=O)[C@H](CS)NC(=O)[C@@H]1CCCN1C(=O)[C@H](Cc1ccc(O)cc1)NC(=O)[C@H](CO)NC(=O)CNC(=O)[C@H](CCCCN)NC(=O)CNC(=O)[C@@H](NC(=O)[C@@H](N)CCCCN)C(C)C)C(C)C)C(C)C)C(C)C)C(C)C)C(=O)O [KVGKGSYPCSFVKVVAKVSV] | – | > 123 µM | ≥ 123 µM | –
CC(C)C[C@H](NC(=O)CNC(=O)[C@H](Cc1ccccc1)NC(=O)[C@@H](NC(=O)[C@H](CO)NC(=O)[C@@H]1CCCN1C(=O)[C@@H](NC(=O)[C@@H](NC(=O)[C@H](CCCCN)NC(=O)[C@H](CO)NC(=O)[C@H](C)NC(=O)[C@H](CC(C)C)NC(=O)[C@H](CCCCN)NC(=O)[C@H](Cc1ccccc1)NC(=O)[C@@H](NC(=O)[C@H](C)NC(=O)[C@@H]1CCCN1C(=O)[C@@H](N)CC(C)C)C(C)C)C(C)C)C(C)C)C(C)C)C(=O)N[C@H](C(=O)N[C@@H](CCCCN)C(=O)O)C(C)C [LPAVFKLASKVVPSVFGLVK] | – | > 122 µM | ≥ 122 µM | –
CC(C)[C@H](N)C(=O)N[C@H](C(=O)N[C@@H](Cc1ccccc1)C(=O)N[C@@H](CCCN=C(N)N)C(=O)N[C@H](C(=O)N[C@@H](C)C(=O)N[C@@H](CO)C(=O)N[C@@H](CCCCN)C(=O)N[C@H](C(=O)N[C@@H](Cc1ccccc1)C(=O)N1CCC[C@H]1C(=O)N[C@@H](C)C(=O)N[C@H](C(=O)N[C@@H](Cc1ccc(O)cc1)C(=O)N[C@@H](CS)C(=O)N[C@H](C(=O)N[C@H](C(=O)N[C@@H](CO)C(=O)N[C@@H](CCCCN)C(=O)N[C@@H](CCCCN)C(=O)O)C(C)C)[C@@H](C)O)C(C)C)C(C)C)C(C)C)C(C)C [VVFRVASKVFPAVYCTVSKK] | – | 57.4 µM (≈ 128 µg/mL) | ≥ 115 µM | –
